Results on 22 compounds are retold here after patent US11655235B2, “Pyrrolidine and piperidine compounds” (YUHAN CORPORATION, priority 2019, dated 2023).

pIC50: −log10 of the molar value.

One test concerns the target DPP4 (Homo sapiens, UniProt P27487). Briefly: DPP4 inhibition, fluorogenic substrate H-Gly-Pro-AMC. The format is biochemical. On the set-up: purchased R&D Systems. Particulars: recombinant human DPP4.
A further test deals with T1, Recombinant human FAP (Homo sapiens, UniProt Q12884).
T1 construct: purchased R&D systems
T1 sequence (Q12884 1-760): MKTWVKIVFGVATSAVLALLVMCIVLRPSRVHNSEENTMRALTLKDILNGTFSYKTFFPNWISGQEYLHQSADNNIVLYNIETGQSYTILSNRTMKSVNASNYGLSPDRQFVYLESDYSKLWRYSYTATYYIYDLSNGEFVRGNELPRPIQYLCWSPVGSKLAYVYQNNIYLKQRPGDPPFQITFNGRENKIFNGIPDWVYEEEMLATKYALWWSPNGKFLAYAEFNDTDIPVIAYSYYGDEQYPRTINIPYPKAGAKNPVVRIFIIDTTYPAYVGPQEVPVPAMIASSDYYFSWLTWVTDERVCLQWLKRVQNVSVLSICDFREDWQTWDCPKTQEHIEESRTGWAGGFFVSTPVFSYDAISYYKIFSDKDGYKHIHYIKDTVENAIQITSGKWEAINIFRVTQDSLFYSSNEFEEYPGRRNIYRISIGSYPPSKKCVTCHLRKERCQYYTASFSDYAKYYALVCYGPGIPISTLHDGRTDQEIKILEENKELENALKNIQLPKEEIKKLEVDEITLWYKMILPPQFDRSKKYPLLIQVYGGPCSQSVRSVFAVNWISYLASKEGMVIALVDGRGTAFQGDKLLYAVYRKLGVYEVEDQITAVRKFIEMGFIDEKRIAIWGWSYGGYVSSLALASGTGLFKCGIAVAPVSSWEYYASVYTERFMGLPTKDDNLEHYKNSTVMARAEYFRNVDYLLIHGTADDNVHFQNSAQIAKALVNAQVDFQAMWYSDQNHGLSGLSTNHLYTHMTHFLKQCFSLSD
Briefly: FAP FRET assay, FGF21-sequence FRET peptide substrate. Format: biochemical. Conditions: FRET peptide with human FGF21 sequence, 6 μM, 37° C. The protocol:
The compounds according to the present technology were evaluated in terms of the inhibitory effect on the activity of dipeptidyl peptidases including FAP by using a substrate producing fluorescent substances upon enzymatic decomposition. The test was conducted at 25° C. to get a final reaction volume of 100 μL in a 96 black well plate. […] Briefly, the test compounds were dissolved in dimethyl sulfoxide (DMSO) at a concentration of 20 mM and then subjected to serial dilution, thereby creating an 8 point curve. As for the control group, a 6 point curve created by serial dilution of Talabostat in the same buffer solution was used. Fluorescence intensity was measured using a microplate reader (Flexstation3, Molecular Devices) under the wavelength condition exciting at 380 nm and reading the emission at 460 nm. The inhibitory effect of the test compounds was measured as a decrease (%) in the signal rate as compared to the control group without any inhibitor. Data was fixed to a logistic model with four variables and IC50 value was calculated using GraphPad Prism program. For the FAP FRET assay, recombinant human FAP (R&D systems) was diluted with 50 mM HEPES (pH 7.2) buffer comprising 150 mM of sodium chloride, 0.1 mg/ml of bovine serum albumin (BSA) and 1 mM EDTA to be 10 ng per final reaction. The test compounds were subjected to serial dilution in a buffer under the condition containing up to 0.1% of DMSO. FRET peptides containing human FGF21 sequence ([…]) conjugated with HyLite Fluor 488 and dark quencher QXL 520 (Anaspec) was used as a substrate. By dissolving in DMSO and then diluting in the same buffer, the substrate was added to be 6 μM per final reaction. All reactions of FRET assay was conducted at 37° C.

Chain of DPP4 (P27487 whole entry): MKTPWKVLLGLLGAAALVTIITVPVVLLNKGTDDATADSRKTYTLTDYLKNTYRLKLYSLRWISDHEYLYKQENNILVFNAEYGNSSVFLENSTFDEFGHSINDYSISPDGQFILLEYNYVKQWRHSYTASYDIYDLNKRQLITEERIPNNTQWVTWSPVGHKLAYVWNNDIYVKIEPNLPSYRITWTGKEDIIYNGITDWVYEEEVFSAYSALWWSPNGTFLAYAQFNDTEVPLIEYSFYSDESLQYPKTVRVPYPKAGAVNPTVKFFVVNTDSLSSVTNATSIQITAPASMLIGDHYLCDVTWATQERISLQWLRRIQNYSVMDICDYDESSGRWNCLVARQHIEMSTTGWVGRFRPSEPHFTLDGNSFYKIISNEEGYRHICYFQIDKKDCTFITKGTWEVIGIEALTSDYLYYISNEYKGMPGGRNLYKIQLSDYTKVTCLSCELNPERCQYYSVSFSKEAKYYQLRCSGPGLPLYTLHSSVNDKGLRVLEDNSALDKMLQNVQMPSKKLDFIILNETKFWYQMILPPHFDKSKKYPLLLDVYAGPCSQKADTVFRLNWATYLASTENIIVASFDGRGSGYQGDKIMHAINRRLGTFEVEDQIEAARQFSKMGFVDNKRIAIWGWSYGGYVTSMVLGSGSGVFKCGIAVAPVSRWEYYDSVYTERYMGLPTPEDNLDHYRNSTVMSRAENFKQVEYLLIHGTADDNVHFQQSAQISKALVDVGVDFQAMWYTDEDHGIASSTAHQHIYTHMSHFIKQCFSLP

As for `CN(c1cc(F)cc2ncccc12)[C@H]1CCN(CC(=O)N2C[C@@H](F)C[C@H]2C#N)C1` [Example 157, (2S,4S)-4-fluoro-1-(2-((S)-3-((7-fluoroquinolin-5-yl)(methyl)amino)pyrrolidin-1-yl)acetyl)pyrrolidine-2-carbonitrile], the figures for the pIC50 at DPP4 and on Recombinant human FAP were 5.67 and 7.69, respectively.
Turning to `COc1ccc2ncccc2c1N[C@@H]1CCN(CC(=O)N2C[C@@H](F)C[C@H]2C#N)C1` [Example 176, (2S,4S)-4-fluoro-1-[2-[(3R)-3-[(6-methoxy-5-quinolyl)amino]pyrrolidin-1-yl]acetyl]pyrrolidine-2-carbonitrile], the results for the negative logarithm of the IC50 (pIC50) on DPP4 and on Recombinant human FAP were 5.82 and 7.65, respectively.
In the same order, the values of `Cc1ccc2nccc(N[C@@H]3CCN(CC(=O)N4C[C@@H](F)C[C@H]4C#N)C3)c2c1` [Example 187, (2S,4S)-4-fluoro-1-[2-[(3R)-3-[(6-methyl-4-quinolyl)amino]pyrrolidin-1-yl]acetyl]pyrrolidine-2-carbonitrile] are 4.75 and 7.62.
Regarding `COc1ccc2nccc(N[C@@H]3CCN(CC(=O)N4C[C@@H](F)C[C@H]4C#N)C3)c2c1` [Example 188, (2S,4S)-4-fluoro-1-[2-[(3R)-3-[(6-methoxy-4-quinolyl)amino]pyrrolidin-1-yl]acetyl]pyrrolidine-2-carbonitrile], the pIC50 (in general, the IC50 on a negative log10 scale, so that one unit is a factor of ten) was 4.82 at DPP4 and 7.67 on Recombinant human FAP.
In the same order, the values of `N#C[C@@H]1C[C@H](F)CN1C(=O)CN1CC[C@@H](Nc2ccnc3ccc(F)cc23)C1` [Example 191, (2S,4S)-4-fluoro-1-[2-[(3R)-3-[(6-fluoro-4-quinolyl)amino]pyrrolidin-1-yl]acetyl]pyrrolidine-2-carbonitrile] are 5.49 and 7.71.
For `N#C[C@@H]1C[C@H](F)CN1C(=O)CN1CC[C@@H](Nc2ccnc3ccc(Cl)cc23)C1` [Example 192, (2S,4S)-4-fluoro-1-[2-[(3R)-3-[(6-chloro-4-quinolyl)amino]pyrrolidin-1-yl]acetyl]pyrrolidine-2-carbonitrile], the negative-log IC50 (pIC50) is 5.26 at DPP4 and 7.81 on Recombinant human FAP.
The like results for `COc1ccc2c(N[C@@H]3CCN(CC(=O)N4C[C@@H](F)C[C@H]4C#N)C3)ccnc2c1` [Example 193, (2S,4S)-4-fluoro-1-[2-[(3R)-3-[(7-methoxy-4-quinolyl)amino]pyrrolidin-1-yl]acetyl]pyrrolidine-2-carbonitrile] were, in that order, 5.04 and 7.61.
In the same order, the values of `N#C[C@@H]1C[C@H](F)CN1C(=O)CN1CC[C@@H](Nc2ccnc3c(F)cccc23)C1` [Example 194, (2S,4S)-4-fluoro-1-[2-[(3R)-3-[(8-fluoro-4-quinolyl)amino]pyrrolidin-1-yl]acetyl]pyrrolidine-2-carbonitrile] are 4.71 and 7.96.
For `COc1cccc2c(N[C@@H]3CCN(CC(=O)N4C[C@@H](F)C[C@H]4C#N)C3)ccnc12` [Example 195, (2S,4S)-4-fluoro-1-[2-[(3R)-3-[(8-methoxy-4-quinolyl)amino]pyrrolidin-1-yl]acetyl]pyrrolidine-2-carbonitrile], the pIC50 is 4.85 at DPP4 and 7.66 at Recombinant human FAP.
The like results for `N#C[C@@H]1C[C@H](F)CN1C(=O)CN1CC[C@@H](Nc2ccnc3c(C(F)(F)F)cccc23)C1` [Example 196, (2S,4S)-4-fluoro-1-[2-[(3R)-3-[[8-(trifluoromethyl)-4-quinolyl]amino]pyrrolidin-1-yl]acetyl]pyrrolidine-2-carbonitrile] were, in that order, 5.42 and 8.13.
For `N#C[C@@H]1CCCN1C(=O)CN1CC[C@@H](Nc2ccc3nc(Cl)ccc3c2)C1` [Example 206, (2S)-1-[2-[(3R)-3-[(2-chloro-6-quinolyl)amino]pyrrolidin-1-yl]acetyl]pyrrolidine-2-carbonitrile], on Recombinant human FAP, the negative-log IC50 (pIC50) was 7.48.
Still for that read-out and setting: with `N#C[C@@H]1C[C@H](F)CN1C(=O)CN1CC[C@@H](Nc2ccc3nc(Cl)ccc3c2)C1` [Example 207, (2S,4S)-4-fluoro-1-[2-[(3R)-3-[(2-chloro-6-quinolyl)amino]pyrrolidin-1-yl]acetyl]pyrrolidine-2-carbonitrile] the figure was 7.75.
Take `N#C[C@@H]1CCCN1C(=O)CN1CC[C@@H](Nc2ccc3nc(C(F)(F)F)ccc3c2)C1` [Example 217, (2S)-1-[2-[(3R)-3-[[2-(trifluoromethyl)-6-quinolyl]amino]pyrrolidin-1-yl]acetyl]pyrrolidine-2-carbonitrile]: the pIC50 is 4.54 at DPP4 and 8.06 at Recombinant human FAP.
In the same order, the values of `Cc1cnc2ccc(N[C@@H]3CCN(CC(=O)N4CCC[C@H]4C#N)C3)cc2c1` [Example 218, (2S)-1-[2-[(3R)-3-[(3-methyl-6-quinolyl)amino]pyrrolidin-1-yl]acetyl]pyrrolidine-2-carbonitrile] are 4.76 and 7.58.
On to `COc1ccnc2ccc(N[C@@H]3CCN(CC(=O)N4CCC[C@H]4C#N)C3)cc12` [Example 219, (2S)-1-[2-[(3R)-3-[(4-methoxy-6-quinolyl)amino]pyrrolidin-1-yl]acetyl]pyrrolidine-2-carbonitrile], for which the figures for the pIC50 on DPP4 and on Recombinant human FAP were 4.88 and 7.77, respectively.
In the same order, the values of `Cc1cc(N[C@@H]2CCN(CC(=O)N3CCC[C@H]3C#N)C2)cc2cccnc12` [Example 220, (2S)-1-[2-[(3R)-3-[(8-methyl-6-quinolyl)amino]pyrrolidin-1-yl]acetyl]pyrrolidine-2-carbonitrile] are 4.88 and 8.24.
On to `N#C[C@@H]1CCCN1C(=O)CN1CC[C@@H](Nc2cc(F)c3ncccc3c2)C1` [Example 221, (2S)-1-[2-[(3R)-3-[(8-fluoro-6-quinolyl)amino]pyrrolidin-1-yl]acetyl]pyrrolidine-2-carbonitrile], for which the values for the pIC50 on DPP4 and at Recombinant human FAP were 4.96 and 8.12, respectively.
In the same order, the values of `N#C[C@@H]1CCCN1C(=O)CN1CC[C@@H](Nc2cc(Cl)c3ncccc3c2)C1` [Example 222, (2S)-1-[2-[(3R)-3-[(8-chloro-6-quinolyl)amino]pyrrolidin-1-yl]acetyl]pyrrolidine-2-carbonitrile] are 4.93 and 8.68.
As to `N#C[C@@H]1C[C@H](F)CN1C(=O)CN1CCC(Nc2cccc3nc[nH]c23)CC1` [Example 384, (2S,4S)-1-[2-[4-(3H-benzimidazol-4-ylamino)-1-piperidyl]acetyl]-4-fluoro-pyrrolidine-2-carbonitrile], at Recombinant human FAP, the negative-log IC50 (pIC50) is 7.13.
The same measure, in the same setting: with `N#C[C@@H]1C[C@H](F)CN1C(=O)CN1CCC(Nc2cc(Cl)nc(N3CCOCC3)c2)CC1` [Example 385, (2S,4S)-1-[2-[4-[(2-chloro-6-morpholino-4-pyridyl)amino]-1-piperidyl]acetyl]-4-fluoro-pyrrolidine-2-carbonitrile] the figure was 7.11; with `N#C[C@@H]1C[C@H](F)CN1C(=O)CN1CCC(Nc2cccc3ncc(C(F)(F)F)cc23)CC1` [Example 386, (2S,4S)-4-fluoro-1-[2-[4-[[3-(trifluoromethyl)-5-quinolyl]amino]-1-piperidyl]acetyl]pyrrolidine-2-carbonitrile], 7.70.
Same read-out and setting: next, `N#C[C@@H]1CCCN1C(=O)CN1CCC(Nc2cccc3ncc(C(F)(F)F)cc23)CC1` [Example 387, (2S)-1-[2-[4-[[3-(trifluoromethyl)-5-quinolyl]amino]-1-piperidyl]acetyl]pyrrolidine-2-carbonitrile]: 7.49.
